Patent US7514579B2, “Boronic chalcone derivatives and uses thereof” (Johns Hopkins University, priority 2002, dated 2009)

Tests used:
Settings in all cases: MTT growth inhibition, 96 hours exposure
[1] = system: MCF-12A normal breast epithelial cell line; assay: MTT survival assay, MCF-12A cells; format: cell-based, human
Method: (§1) The cytotoxicity of the boronic chalcone analogs and carboxylic acid chalcones were evaluated and compared by MTT survival assays of human breast cancer MDA-MB-435, MDA-MB-231, Wt-MCF7, and MCF-10A cells treated at different concentrations of the analogs.
(§2) Human breast cancer MDA-MB-231 (estrogen independent) and wtMCF7 (estrogen dependent) human breast cancer cells were maintained in DMEM medium supplemented with 5% fetal bovine serum, 2 mM glutamine, and 100 units/mL penicillin/streptomycin. MDA-MB-435 (estrogen independent) human breast cancer cells were maintained in IMEM medium supplemented with 5% fetal bovine serum and 2 mM glutamine. Each cell line used has unique growth characteristics spanning the spectrum of tumor invasiveness, differentiation and estrogen dependence. Normal breast epithelial cell lines, MCF-10A and MCF-12A, were maintained in 5% and 10% horse serum in DMEM:Ham's F12 media, respectively, supplemented with 2 mM glutamine, 100 units/mL penicillin/streptomycin, 0.02 μg/mL EGF, 0.01 mg/mL insulin, and 0.1 μg/mL cholera toxin.
(§3) Cells were incubated at 37° C. in a 5% CO2 atmosphere. The MTT colorimetric assay was used to determine growth inhibition (Mosmann, T., J. Immunol. Methods, 1983, 65, 55-63). Cells were plated in 96-well plates and allowed to attach for 24 hours. Chalcone derivatives based on compounds 20 and 21 below were dissolved in DMSO at 10 mM concentrations. Cells were expose in quadruplicate well to chalcone concentrations of 0.5-100 µM for 96 hours. After 96 hours the media was aspirated, and 100 µL of 1 mg/mL MTT solution (Sigma Chemical Co.) diluted in serum free media was added to each well. After 4 hours of incubation, the MTT solution was removed and 200 µL of 1:1 (v/v) solution of DMSO:ethanol was added to each well to dissolve formazan crystals. The absorbance at A540nm was determined on a plate reader. IC50 values were determined from log plots of percent of control vs. concentration. Each compound was assayed twice in quadruplicate. Analogs 3g and 9 have been previously described (Stoll R., et al., supra; Kussie, P. H., et al., supra) and were included for comparative purposes.

[2] = system: MDA-MB-231 (estrogen independent) human breast cancer cells; assay: MTT survival assay, MDA-MB-231 cells; format: cell-based
Method: as §1, §2, §3

[3] = system: wtMCF7 (estrogen dependent) human breast cancer cells; assay: MTT survival assay, Wt-MCF7 cells; format: cell-based
Method: as §1, §2, §3

[4] = system: MCF-10A normal breast epithelial cell line; assay: MTT survival assay, MCF-10A cells; format: cell-based, human
Method: as §1, §2, §3

[5] = system: MDA-MB-435 (estrogen independent) human breast cancer cells; assay: MTT survival assay, MDA-MB-435 cells; format: cell-based
Method: as §1, §2, §3

Question: What does the source list for O=C(/C=C/c1ccc(I)cc1)c1ccc(B(O)O)cc1 [Compound 3a]?
Answer: IC50 [1]: 63 µM; IC50 [2]: 8.8 µM; IC50 [3]: 7 µM; IC50 [4]: 75 µM; IC50 [5]: 10 µM

Question: For O=C(/C=C/c1ccc(Cl)c(Cl)c1)c1ccc(B(O)O)cc1 [Compound 3b], which IC50 [1] is on record?
Answer: Its IC50 is 11 µM.

Question: And the IC50 [2]?
Answer: The IC50 was 9.5 µM.

Question: And the IC50 [3]?
Answer: The IC50 was 5 µM.

Question: What about the IC50 [4] of the same compound?
Answer: Its IC50 is 18 µM.

Question: And the IC50 [5]?
Answer: Its IC50 is 3.5 µM.

Question: With O=C(/C=C/c1ccc(F)c(Cl)c1)c1ccc(B(O)O)cc1 [Compound 3c] as the compound, how does the IC50 [1] read?
Answer: Its IC50 is 22 µM.

Question: What about the IC50 [2] of the same compound?
Answer: Its IC50 is 8.5 µM.

Question: And the IC50 [3]?
Answer: The IC50 was 6 µM.

Question: What about the IC50 [4] of the same compound?
Answer: Its IC50 is 25 µM.

Question: And the IC50 [5]?
Answer: Its IC50 is 16 µM.

Question: Which results are given for O=C(/C=C/c1ccc(F)c(F)c1)c1ccc(B(O)O)cc1 [Compound 3d]?
Answer: IC50 [1]: 39 µM; IC50 [2]: 8.8 µM; IC50 [3]: 7.8 µM; IC50 [4]: 18 µM; IC50 [5]: 8.8 µM

Question: How did the IC50 [1] turn out when O=C(/C=C/c1ccc(F)c(Br)c1)c1ccc(B(O)O)cc1 [Compound 3e] was run?
Answer: The IC50 was 38 µM.

Question: And the IC50 [2]?
Answer: Its IC50 is 9.5 µM.

Question: And the IC50 [3]?
Answer: Its IC50 is 8.5 µM.

Question: What about the IC50 [4] of the same compound?
Answer: The IC50 was 17 µM.

Question: And the IC50 [5]?
Answer: The IC50 was 8.8 µM.

Question: What does the source list for O=C(O)COc1ccc(C(=O)/C=C/c2ccc(I)cc2)cc1 [Compound 3f]?
Answer: IC50 [1]: 38 µM; IC50 [2]: 44 µM; IC50 [3]: 9 µM; IC50 [4]: 44 µM; IC50 [5]: 18 µM

Question: Which results are given for O=C(O)COc1ccc(C(=O)/C=C/c2ccc(Cl)c(Cl)c2)cc1 [Compound 3g, reference compound]?
Answer: IC50 [1]: 15 µM; IC50 [2]: 9 µM; IC50 [3]: 13 µM; IC50 [4]: 13 µM; IC50 [5]: 9 µM

Question: Which IC50 [1] does the source give for O=C(/C=C/c1ccc(I)cc1)c1ccc(O)cc1 [Compound 6] here?
Answer: The IC50 was 30 µM.

Question: And the IC50 [2]?
Answer: Its IC50 is 8 µM.

Question: And the IC50 [3]?
Answer: Its IC50 is 7 µM.

Question: What about the IC50 [4] of the same compound?
Answer: Its IC50 is 15 µM.

Question: What about the IC50 [5] of the same compound?
Answer: Its IC50 is 4.5 µM.

Question: Which IC50 [1] does the source give for O=C(/C=C/c1ccc(I)cc1)c1ccc(OCB(O)O)cc1 [Compound 7] here?
Answer: Its IC50 is 100 µM.

Question: What about the IC50 [2] of the same compound?
Answer: The IC50 was 11 µM.

Question: What about the IC50 [3] of the same compound?
Answer: Its IC50 is 9.5 µM.

Question: What about the IC50 [4] of the same compound?
Answer: The IC50 was 38 µM.

Question: And the IC50 [5]?
Answer: Its IC50 is 18 µM.

Question: With O=C(/C=C/c1ccc(Cl)c(Cl)c1)c1ccc(B(O)O)cc1 [Compound 8] as the compound, how does the IC50 [1] read?
Answer: Its IC50 is 15 µM.

Question: And the IC50 [2]?
Answer: Its IC50 is 8 µM.

Question: What about the IC50 [3] of the same compound?
Answer: Its IC50 is 5.5 µM.

Question: What about the IC50 [4] of the same compound?
Answer: The IC50 was 18 µM.

Question: What about the IC50 [5] of the same compound?
Answer: Its IC50 is 4 µM.

Question: What does the source list for O=C(O)COc1ccc(C(=O)/C=C/c2ccc(Cl)c(Cl)c2)cc1 [Compound 9, reference compound]?
Answer: IC50 [1]: 28 µM; IC50 [2]: 18 µM; IC50 [3]: 15 µM; IC50 [4]: 12 µM; IC50 [5]: 13 µM
